Results as given in ChEMBL document CHEMBL5303573, “Mapping human microbiome drug metabolism by gut bacteria and their genes” (Nature, 2019).

Molecular target: T1, Diguanylate cyclase (Collinsella aerofaciens, UniProt A4EB91)
T1 sequence (A4EB91 whole entry): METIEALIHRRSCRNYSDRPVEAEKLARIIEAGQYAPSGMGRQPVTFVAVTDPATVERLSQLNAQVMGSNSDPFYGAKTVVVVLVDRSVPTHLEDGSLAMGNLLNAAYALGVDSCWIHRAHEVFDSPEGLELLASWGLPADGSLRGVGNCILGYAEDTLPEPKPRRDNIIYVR
Test: The drug is tested on Collinsella aerofaciens strain: ATCC25986 for biotransformation. The drug concentrations were measured before and after a 12-h incubation by liquid-chromatography-coupled mass spectrometry (LC–MS)
Assay type: ADME
Design: dose 2 uM
Settings: 2 µM

SMILES | Bacterial Biotransformation
N#Cc1ccc2c(c1)N(CCCN1CCC(O)CC1)c1ccccc1S2 [PERICIAZINE] | Compound NOT metabolized
C[C@]12CCC(=O)C=C1[C@@H]1C[C@@H]1[C@H]1[C@@H]3[C@@H]4C[C@@H]4[C@@]4(CCC(=O)O4)[C@@]3(C)CC[C@@H]12 [DROSPIRENONE] | Compound NOT metabolized
